Literature values, collected in patent publication US20090176772A1, “METHOD OF REVERSING LEFT VENTRICULAR REMODELING” (priority 2004, published 2009).

Test system: LV reverse remodeling
Conditions: historical data, Sabbah et al. (1994) Circ. 89:2852-2859; cited from earlier work

SMILES	Ability to reduce LV end-diastolic volume (FIG. 1)	Ability to reduce LV end-systolic volume (FIG. 2)
CCOC(=O)[C@H](CCc1ccccc1)N[C@@H](C)C(=O)N1CCC[C@H]1C(=O)O [enalapril]	neither ranolazine, enalapril, nor metoprolol were independently able to reduce LV end-diastolic volume	neither ranolazine, enalapril, nor metoprolol appear to independently reduce LV end-systolic volume
COCCc1ccc(OCC(O)CNC(C)C)cc1 (stereo not shown) [metoprolol]	neither ranolazine, enalapril, nor metoprolol were independently able to reduce LV end-diastolic volume	neither ranolazine, enalapril, nor metoprolol appear to independently reduce LV end-systolic volume
